Reference: the supplement of paper PMC10307832

Assays:
Experiment in all cases: relative viability (nuclei count vs DMSO), 5 days (fraction); higher = more cells survive
Dabrafenib + Tozasertib = compound: CC(C)(C)c1nc(-c2cccc(NS(=O)(=O)c3c(F)cccc3F)c2F)c(-c2ccnc(N)n2)s1 [Dabrafenib] + Cc1cc(Nc2cc(N3CCN(C)CC3)nc(Sc3ccc(NC(=O)C4CC4)cc3)n2)n[nH]1 [Tozasertib] (partner 0.1 µM)
Procedure, shortened: (§1)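 Lung cancer cell lines were pin-tool dosed in 1536-well plates on the day after seeding, with either a lone drug or a fixed anchor-drug dose plus five library-drug doses (not always all listed) in √10 steps. Nuclei were counted on 4× images after 5 days. Relative viability is the ratio of treated-well to vehicle-well nuclei counts, with each value a median of duplicate plates.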

Dabrafenib + Phenformin = compound: CC(C)(C)c1nc(-c2cccc(NS(=O)(=O)c3c(F)cccc3F)c2F)c(-c2ccnc(N)n2)s1 [Dabrafenib] + N=C(N)NC(=N)NCCc1ccccc1 [Phenformin] (partner 250 µM)
Procedure, shortened: as §1

Dabrafenib + Decitabine = compound: CC(C)(C)c1nc(-c2cccc(NS(=O)(=O)c3c(F)cccc3F)c2F)c(-c2ccnc(N)n2)s1 [Dabrafenib] + Nc1ncn([C@H]2C[C@H](O)[C@@H](CO)O2)c(=O)n1 [Decitabine] (partner 2 µM)
Procedure, shortened: as §1

Dabrafenib + Olaparib = compound: CC(C)(C)c1nc(-c2cccc(NS(=O)(=O)c3c(F)cccc3F)c2F)c(-c2ccnc(N)n2)s1 [Dabrafenib] + O=C(c1cc(Cc2n[nH]c(=O)c3ccccc23)ccc1F)N1CCN(C(=O)C2CC2)CC1 [Olaparib] (partner 8 µM)
Procedure, shortened: as §1

VX-702 + Luminespib = compound: NC(=O)c1ccc(N(C(N)=O)c2c(F)cccc2F)nc1-c1ccc(F)cc1F [VX-702] + CCNC(=O)c1noc(-c2cc(C(C)C)c(O)cc2O)c1-c1ccc(CN2CCOCC2)cc1 [Luminespib] (partner 0.01 µM)
Procedure, shortened: as §1

VX-702 + Dasatinib = compound: NC(=O)c1ccc(N(C(N)=O)c2c(F)cccc2F)nc1-c1ccc(F)cc1F [VX-702] + Cc1nc(Nc2ncc(C(=O)Nc3c(C)cccc3Cl)s2)cc(N2CCN(CCO)CC2)n1 [Dasatinib] (partner 0.075 µM)
Procedure, shortened: as §1

Q: What does the source list for SW 900?
A: relative viability (Dabrafenib + Tozasertib; first compound 0.009487 µM): 0.711; relative viability (Dabrafenib + Tozasertib; first compound 0.03 µM): 0.527; relative viability (Dabrafenib + Tozasertib; first compound 0.3 µM): 0.632; relative viability (Dabrafenib + Phenformin; first compound 0.009487 µM): 0.579; relative viability (Dabrafenib + Phenformin; first compound 0.03 µM): 0.561; relative viability (Dabrafenib + Phenformin; first compound 0.3 µM): 0.86; relative viability (Dabrafenib + Decitabine; first compound 0.009487 µM): 0.35; relative viability (Dabrafenib + Decitabine; first compound 0.09487 µM): 0.486; relative viability (Dabrafenib + Decitabine; first compound 0.3 µM): 0.394; relative viability (Dabrafenib + Olaparib; first compound 0.009487 µM): 0.93; relative viability (Dabrafenib + Olaparib; first compound 0.09487 µM): 0.775; relative viability (Dabrafenib + Olaparib; first compound 0.3 µM): 0.984; relative viability (VX-702 + Luminespib; first compound 0.02 µM): 0.202; relative viability (VX-702 + Luminespib; first compound 0.2 µM): 0.188; relative viability (VX-702 + Luminespib; first compound 0.6325 µM): 0.15; relative viability (VX-702 + Luminespib; first compound 2 µM): 0.16; relative viability (VX-702 + Dasatinib; first compound 0.02 µM): 0.541; relative viability (VX-702 + Dasatinib; first compound 0.2 µM): 0.664; relative viability (VX-702 + Dasatinib; first compound 0.6325 µM): 0.56; relative viability (VX-702 + Dasatinib; first compound 2 µM): 0.818
